Assay results as given in the supplement of paper PMC4314810.
± gives the standard deviation of the averaged measurements.

Each sequence was assayed on MCF7 (assay: HRG-induced Akt activation (dPAkt = log2 pAkt/Akt HRG-stimulated minus log2 pAkt/Akt basal) (log2 ratio difference); higher = stronger HRG-induced Akt(T308) phosphorylation). Settings: miRNA mimic concentration 10 nM; time after transfection 72 h; heregulin 10 ng/ml; stimulation time 1 h.
Summary of the method: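 MCF7 cells were plated […] in 96-well plates and transfected in two biological replicates with a library of 879 miRNA mimics (10 nM final) using Lipofectamine RNAiMax; 72 h later they were stimulated for 1 h with 10 ng/ml heregulin-beta1 or left unstimulated. After fixation in 4% PFA, phospho-Akt(T308) and total Akt were measured by In-Cell Western on an Odyssey, with signals corrected for column-wise fixation decay. Heregulin-induced Akt activation is the stimulated minus unstimulated value of the log ratio of phospho-Akt to total Akt, averaged over replicates. That log ratio is log2(pAkt/Akt).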

Row | Sequence | HRG-induced Akt activation (log2)
1 | CAGUGGUUUUACCCUAUGGUAG | 1.91 ± 0.035
2 | CAGUUAUCACAGUGCUGAUGCU | 1.66 ± 0.42
3 | CAUAAAGUAGAAAGCACUACU | 1.54 ± 0.062
4 | CAUCAUCGUCUCAAAUGAGUCU | 1.91 ± 0.32
5 | CAUCCCUUGCAUGGUGGAGGG | 1.97 ± 0.25
6 | CAUCUUACCGGACAGUGCUGGA | 1.841 ± 0.015
7 | CAUCUUACUGGGCAGCAUUGGA | 2.05 ± 0.12
8 | CAUCUUCCAGUACAGUGUUGGA | 1.73 ± 0.073
9 | CAUGCCUUGAGUGUAGGACCGU | 1.16 ± 0.11
10 | CAUGGUUCUGUCAAGCACCGCG | 1.34 ± 0.18
11 | CAUUAUUACUUUUGGUACGCG | 1.58 ± 0.02
12 | CAUUGCACUUGUCUCGGUCUGA | 1.74 ± 0.8
13 | CCAAAACUGCAGUUACUUUUGC | 1.39 ± 0.13
14 | CCAAUAUUACUGUGCUGCUUUA | 1.45 ± 0.28
15 | CCAAUAUUGGCUGUGCUGCUCC | 1.32 ± 0.36
16 | CCACACCGUAUCUGACACUUU | 1.36 ± 0.12
17 | CCACCACCGUGUCUGACACUU | 1.84 ± 0.088
18 | CCAGACAGAAUUCUAUGCACUUUC | 1.93 ± 0.7
19 | CCAGUAUUAACUGUGCUGCUGA | 1.55 ± 0.32
20 | CCAGUCCUGUGCCUGCCGCCU | 1.88 ± 0.41
21 | CCAGUGGGGCUGCUGUUAUCUG | 1.78 ± 0.29
22 | CCAGUUACCGCUUCCGCUACCGC | 1.323 ± 0.011
23 | CCAUGGAUCUCCAGGUGGGU | 1.47 ± 0.17
24 | CCCAGAUAAUGGCACUCUCAA | 1.55 ± 0.12

Row | Sequence | HRG-induced Akt activation (log2)
25 | CCCAGUGUUCAGACUACCUGUUC | 1.28 ± 0.6
26 | CCCAGUGUUUAGACUAUCUGUUC | 1.58 ± 0.18
27 | CCCCACCUCCUCUCUCCUCAG | 1.28 ± 0.38
28 | CCCCAGGGCGACGCGGCGGG | 2.057 ± 0.012
29 | CCCCCACAACCGCGCUUGACUAGCU | 1.4 ± 0.091
30 | CCCGGAGCCAGGAUGCAGCUC | 1.79 ± 0.39
31 | CCCUGUGCCCGGCCCACUUCUG | 1.19 ± 0.05
32 | CCGUCGCCGCCACCCGAGCCG | 1.23 ± 0.13
33 | CCUAGUAGGUGUCCAGUAAGUGU | 1.04 ± 0.63
34 | CCUAUUCUUGAUUACUUGUUUC | 1.273 ± 0.0028
35 | CCUAUUCUUGGUUACUUGCACG | 1.29 ± 0.1
36 | CCUCAGGGCUGUAGAACAGGGCU | 1.49 ± 0.21
37 | CCUCCCACACCCAAGGCUUGCA | 1.37 ± 0.3
38 | CCUCCUGCCCUCCUUGCUGU | 2.4 ± 0.096
39 | CCUCUAGAUGGAAGCACUGUCU | 1.41 ± 0.026
40 | CCUCUGAAAUUCAGUUCUUCAG | 1.76 ± 0.071
41 | CCUCUGGGCCCUUCCUCCAG | 0.844 ± 0.012
42 | CCUCUUCCCCUUGUCUCUCCAG | 1.52 ± 0.031
43 | CCUGCAGCGACUUGAUGGCUUCC | 0.841 ± 0.6
44 | CCUGGAAACACUGAGGUUGUG | 1.61 ± 0.12
45 | CCUGUUCUCCAUUACUUGGCUC | 1.53 ± 0.36
46 | CCUGUUGAAGUGUAAUCCCCA | 1.21 ± 0.058
47 | CGAAAACAGCAAUUACCUUUGC | 1.364 ± 0.0018
48 | CGAAUCAUUAUUUGCUGCUCUA | 1.44 ± 0.25

Row | Sequence | HRG-induced Akt activation (log2)
49 | CGCAGGGGCCGGGUGCUCACCG | 1.59 ± 0.09
50 | CGCAUCCCCUAGGGCAUUGGUGU | 2.62 ± 0.28
51 | CGCGGGUGCUUACUGACCCUU | 3.25 ± 0.033
52 | CGGAUGAGCAAAGAAAGUGGUU | 1.19 ± 0.07
53 | CGGCAACAAGAAACUGCCUGAG | 1.46 ± 0.68
54 | CGGCCCGGGCUGCUGCUGUUCCU | 1.09 ± 0.4
55 | CGGCGGGGACGGCGAUUGGUC | 2.14 ± 0.33
56 | CGGCUCUGGGUCUGUGGGGA | 1.13 ± 0.17
57 | CGGGCGUGGUGGUGGGGG | 1.56 ± 0.11
58 | CGGGGCAGCUCAGUACAGGAU | 0.9798 ± 0.0068
59 | CGGGGUUUUGAGGGCGAGAUGA | 2.25 ± 0.089
60 | CGGGUCGGAGUUAGCUCAAGCGG | 1.44 ± 0.098
61 | CGGGUGGAUCACGAUGCAAUUU | 2.37 ± 0.063
62 | CGUCAACACUUGCUGGUUUCCU | 2.32 ± 0.12
63 | CGUCUUACCCAGCAGUGUUUGG | 1.73 ± 0.13
64 | CGUGCCACCCUUUUCCCCAG | 1.18 ± 0.34
65 | CGUGUAUUUGACAAGCUGAGUU | 2.29 ± 0.19
66 | CGUGUUCACAGCGGACCUUGAU | 1.89 ± 0.39
67 | CUAAUAGUAUCUACCACAAUAAA | 1.84 ± 0.24
68 | CUACAAAGGGAAGCACUUUCUC | 1.96 ± 0.15
69 | CUACAAAGGGAAGCCCUUUC | 1.62 ± 0.21
70 | CUAGACUGAAGCUCCUUGAGG | 1.46 ± 0.25
71 | CUAGGUAUGGUCCCAGGGAUCC | 1.26 ± 0.24
72 | CUAGUGAGGGACAGAACCAGGAUUC | 1.82 ± 0.032

Row | Sequence | HRG-induced Akt activation (log2)
73 | CUAUACAACCUACUGCCUUCCC | 1.27 ± 0.16
74 | CUAUACAAUCUACUGUCUUUC | 1.11 ± 0.051
75 | CUAUACAAUCUAUUGCCUUCCC | 1.44 ± 0.43
76 | CUAUACAGUCUACUGUCUUUCC | 1.85 ± 0.18
77 | CUAUACGACCUGCUGCCUUUCU | 1.47 ± 0.14
78 | CUAUACGGCCUCCUAGCUUUCC | 1.9 ± 0.13
79 | CUCAGUAGCCAGUGUAGAUCCU | 1.53 ± 0.16
80 | CUCAUCUGCAAAGAAGUAAGUG | 1.5 ± 0.58
81 | CUCCAGAGGGAAGUACUUUCU | 2.02 ± 0.14
82 | CUCCAGAGGGAUGCACUUUCU | 1.83 ± 0.3
83 | CUCCCACAUGCAGGGUUUGCA | 1.81 ± 0.022
84 | CUCCCACUGCUUCACUUGACUA | 1.32 ± 0.27
85 | CUCCGUUUGCCUGUUUCGCUG | 2.07 ± 0.2
86 | CUCCUACAUAUUAGCAUUAACA | 1.12 ± 0.31
87 | CUCCUAUAUGAUGCCUUUCUUC | 1.72 ± 0.36
88 | CUCCUGACUCCAGGUCCUGUGU | 1.43 ± 0.33
89 | CUCCUGAGCCAUUCUGAGCCUC | 1.48 ± 0.25
90 | CUCGGCGCGGGGCGCGGGCUCC | 1.37 ± 0.015
91 | CUCUAGAGGGAAGCACUUUCUC | 1.85 ± 0.4
92 | CUCUAGAGGGAAGCACUUUCUG | 2.15 ± 0.078
93 | CUCUAGAGGGAAGCGCUUUCUG | 1.51 ± 0.15
94 | CUCUCACCACUGCCCUCCCACAG | 1.9 ± 0.13
95 | CUCUUGAGGGAAGCACUUUCUGU | 2.16 ± 0.45
96 | CUGAAGCUCAGAGGGCUCUGAU | 1.38 ± 0.13

Row | Sequence | HRG-induced Akt activation (log2)
97 | CUGAAGUGAUGUGUAACUGAUCAG | 1.727 ± 0.0053
98 | CUGACCUAUGAAUUGACAGCC | 1.18 ± 0.15
99 | CUGACUGUUGCCGUCCUCCAG | 1.53 ± 0.13
100 | CUGCAAAGGGAAGCCCUUUC | 1.21 ± 0.33
101 | CUGCAAUGUAAGCACUUCUUAC | 0.874 ± 0.36
102 | CUGCCAAUUCCAUAGGUCACAG | 1.47 ± 0.11
103 | CUGCCCUGGCCCGAGGGACCGA | 1.21 ± 0.096
104 | CUGCGCAAGCUACUGCCUUGCU | 1.07 ± 0.26
105 | CUGGACUGAGCCGUGCUACUGG | 1.98 ± 0.076
106 | CUGGAGAUAUGGAAGAGCUGUGU | 1.14 ± 0.047
107 | CUGGAUGGCUCCUCCAUGUCU | 1.96 ± 0.42
108 | CUGGCCCUCUCUGCCCUUCCGU | 1.18 ± 0.4
109 | CUGGGAGAAGGCUGUUUACUCU | 1.04 ± 0.2
110 | CUGGGAGAGGGUUGUUUACUCC | 0.876 ± 0.34
111 | CUGGGAGGUGGAUGUUUACUUC | 0.961 ± 0.055
112 | CUGGGAUCUCCGGGGUCUUGGUU | 2 ± 0.076
113 | CUGGUACAGGCCUGGGGGACAG | 1.68 ± 0.29
114 | CUGGUUUCACAUGGUGGCUUAG | 2.33 ± 0.15
115 | CUGUAAUAUAAAUUUAAUUUAUU | 1.42 ± 0.037
116 | CUGUACAGCCUCCUAGCUUUCC | 2.26 ± 0.15
117 | CUGUACAGGCCACUGCCUUGC | 1.88 ± 0.41
